Measured values: ChEMBL document CHEMBL4665648, “Potent and selective inhibitors of receptor-interacting protein kinase 1 that lack an aromatic back pocket group” (Bioorg Med Chem Lett, 2019)

Experiments:
[1] = Inhibition of necroptosis in human HT-29 cells assessed as reduction in TNFalpha/BV6/zVAD-fmk-induced cell death incubated for 18 hrs by Cell Titer Glo luminescent cell viability assay; assay type: functional, cell-based; conditions: HT-29, 18 h
[2] = molecular target: cAMP-dependent protein kinase catalytic subunit PRKX (Homo sapiens) (UniProt P51817); test: Inhibition of recombinant human GST-tagged full length PRKX expressed in baculovirus expression system using Ser/Thr 01 as substrate at 10 uM incubated for 60 mins by Z'-lyte assay relative to control
[3] = molecular target: Non-receptor tyrosine-protein kinase TYK2 (Homo sapiens) (UniProt P29597); test: Inhibition of recombinant human N-terminal GST-tagged TYK2 (833 to 1187 residues) expressed in baculovirus expression system using Tyr 03 as substrate at 10 uM incubated for 60 mins by Z'-Lyte assay relative to control
[4] = molecular target: Serine/threonine-protein kinase PAK 6 (Homo sapiens) (UniProt Q9NQU5); test: Inhibition of recombinant human His-tagged full length PAK6 expressed in baculovirus expression system using Ser/Thr 20 as substrate at 10 uM incubated for 60 mins by Z'-lyte assay relative to control
[5] = molecular target: Inhibitor of nuclear factor kappa-B kinase subunit beta (Homo sapiens) (UniProt O14920); test: Inhibition of recombinant human GST-tagged full length IKKbeta expressed in baculovirus expression system using Ser/Thr 05 as substrate at 10 uM incubated for 60 mins by Z'-Lyte assay relative to control
[6] = molecular target: Myosin light chain kinase, smooth muscle (Homo sapiens) (UniProt Q15746); test: Inhibition of tracer 236 binding to recombinant human GST-tagged MYLK (1428 to 1771 residues) expressed in baculovirus expression system at 10 uM incubated for 60 mins by Lanthascreen assay relative to control
[7] = molecular target: Inhibitor of nuclear factor kappa-B kinase subunit epsilon (Homo sapiens) (UniProt Q14164); test: Inhibition of recombinant human GST-tagged full length IKKepsilon expressed in baculovirus expression system using Ser/Thr 11 as substrate at 10 uM incubated for 60 mins by Z'-lyte assay relative to control
[8] = molecular target: Serine/threonine-protein kinase SIK2 (Homo sapiens) (UniProt Q9H0K1); test: Inhibition of SIK2 (unknown origin) by selectscreen kinase assay; conditions: dose 10.0 µM, time 60.0 min
[9] = molecular target: Serine/threonine-protein kinase WNK2 (Homo sapiens) (UniProt Q9Y3S1); test: Inhibition of tracer 178 binding to recombinant human GST-tagged WNK2 (166 to 489 residues) expressed in baculovirus expression system at 10 uM incubated for 60 mins by Lanthascreen assay relative to control
[10] = molecular target: Cytoplasmic tyrosine-protein kinase BMX (Homo sapiens) (UniProt P51813); test: Inhibition of recombinant human His-tagged full length BMX expressed in baculovirus expression system using Tyr 01 as substrate at 10 uM incubated for 60 mins by Z'-Lyte assay relative to control
[11] = molecular target: Ephrin type-A receptor 3 (Homo sapiens) (UniProt P29320); test: Inhibition of tracer 236 binding to recombinant human His-tagged EPHA3 (569 to 976 residues) expressed in baculovirus expression system at 10 uM incubated for 60 mins by Lanthascreen assay relative to control
[12] = molecular target: LIM domain kinase 1 (Homo sapiens) (UniProt P53667); test: Inhibition of tracer 236 binding to recombinant human His-tagged LIMK1 (285 to 638 residues) expressed in baculovirus expression system at 10 uM incubated for 60 mins by Lanthascreen assay relative to control
[13] = molecular target: Casein kinase II subunit alpha (Homo sapiens) (UniProt P68400); test: Inhibition of recombinant human His-tagged full length CK2alpha1 expressed in baculovirus expression system using Ser/Thr 1 as substrate at 10 uM incubated for 60 mins by Z'-Lyte assay relative to control
[14] = molecular target: Ribosomal protein S6 kinase alpha-2 (Homo sapiens) (UniProt Q15349); test: Inhibition of recombinant human GST-tagged full length RSK3 expressed in insect expression system using Ser/Thr 06 as substrate at 10 uM incubated for 60 mins by Z'-Lyte assay relative to control
[15] = molecular target: Dual specificity protein kinase CLK3 (Homo sapiens) (UniProt P49761); test: Inhibition of recombinant human GST-tagged full length CLK3 expressed in baculovirus expression system using Ser/Thr 18 as substrate at 10 uM incubated for 60 mins by Z'-Lyte assay relative to control
[16] = molecular target: Phosphorylase b kinase gamma catalytic chain, liver/testis isoform (Homo sapiens) (UniProt P15735); test: Inhibition of recombinant human N-terminal GST-tagged full length PHKG2 expressed in baculovirus expression system using Ser/Thr 07 as substrate at 10 uM incubated for 60 mins by Z'-lyte assay relative to control
[17] = molecular target: Tyrosine-protein kinase CSK (Homo sapiens) (UniProt P41240); test: Inhibition of recombinant human GST-tagged full length CSK expressed in Escherichia coli expression system using Tyr 02 as substrate at 10 uM incubated for 60 mins by Z'-Lyte assay relative to control
[18] = molecular target: Myosin light chain kinase (Homo sapiens) (UniProt Q32MK0); test: Inhibition of MYLK3 (unknown origin) by selectscreen kinase assay; conditions: dose 10.0 µM, time 60.0 min
[19] = molecular target: Serine/threonine-protein kinase 24 (Homo sapiens) (UniProt Q9Y6E0); test: Inhibition of recombinant human GST-tagged full length MST3 expressed in baculovirus expression system using Ser/Thr 07 as substrate at 10 uM incubated for 60 mins by Z'-lyte assay relative to control
[20] = molecular target: Mitogen-activated protein kinase 13 (Homo sapiens) (UniProt O15264); test: Inhibition of recombinant human His-tagged full length p38 delta expressed in baculovirus expression system using Ser/Thr 03 as substrate at 10 uM incubated for 60 mins by Z'-Lyte assay relative to control
[21] = molecular target: RAC-alpha serine/threonine-protein kinase (Homo sapiens) (UniProt P31749); test: Inhibition of recombinant human His-tagged full length AKT1 expressed in baculovirus expression system using Ser/Thr 06 as substrate at 10 uM incubated for 60 mins by Z'-Lyte assay relative to control
[22] = molecular target: Serine/threonine-protein kinase 3 (Homo sapiens) (UniProt Q13188); test: Inhibition of recombinant human GST-tagged full length MST2 expressed in baculovirus expression system using Ser/Thr 07 as substrate at 10 uM incubated for 60 mins by Z'-lyte assay relative to control
[23] = molecular target: Ephrin type-A receptor 1 (Homo sapiens) (UniProt P21709); test: Inhibition of recombinant human GST-tagged EPHA1 (568 to 976 residues) expressed in baculovirus expression system using Tyr 02 as substrate at 10 uM incubated for 60 mins by Z'-Lyte assay relative to control
[24] = molecular target: Serine/threonine-protein kinase Chk1 (Homo sapiens) (UniProt O14757); test: Inhibition of recombinant human His-tagged full length CHK1 expressed in baculovirus expression system using Ser/Thr 19 as substrate at 10 uM incubated for 60 mins by Z'-Lyte assay relative to control
[25] = molecular target: Dual specificity tyrosine-phosphorylation-regulated kinase 3 (Homo sapiens) (UniProt O43781); test: Inhibition of recombinant human GST-tagged full length DYRK3 expressed in baculovirus expression system using Ser/Thr 9 as substrate at 10 uM incubated for 60 mins by Z'-Lyte assay relative to control

Sequence of Phosphorylase b kinase gamma catalytic chain, liver/testis isoform (Homo sapiens) (P15735 whole entry, canonical isoform): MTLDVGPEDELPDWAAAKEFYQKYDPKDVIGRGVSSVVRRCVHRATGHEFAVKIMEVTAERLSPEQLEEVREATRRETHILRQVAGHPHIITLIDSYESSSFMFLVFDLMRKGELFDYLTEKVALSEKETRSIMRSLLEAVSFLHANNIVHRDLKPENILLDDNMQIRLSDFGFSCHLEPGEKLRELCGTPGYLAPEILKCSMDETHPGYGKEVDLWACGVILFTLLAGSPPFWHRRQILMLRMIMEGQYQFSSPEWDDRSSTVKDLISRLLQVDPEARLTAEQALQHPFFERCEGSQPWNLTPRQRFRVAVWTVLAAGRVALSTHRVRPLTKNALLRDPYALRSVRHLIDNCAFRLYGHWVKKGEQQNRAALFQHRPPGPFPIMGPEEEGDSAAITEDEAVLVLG
Sequence of Ephrin type-A receptor 3 (Homo sapiens) (P29320 whole entry, the tested form may be a part): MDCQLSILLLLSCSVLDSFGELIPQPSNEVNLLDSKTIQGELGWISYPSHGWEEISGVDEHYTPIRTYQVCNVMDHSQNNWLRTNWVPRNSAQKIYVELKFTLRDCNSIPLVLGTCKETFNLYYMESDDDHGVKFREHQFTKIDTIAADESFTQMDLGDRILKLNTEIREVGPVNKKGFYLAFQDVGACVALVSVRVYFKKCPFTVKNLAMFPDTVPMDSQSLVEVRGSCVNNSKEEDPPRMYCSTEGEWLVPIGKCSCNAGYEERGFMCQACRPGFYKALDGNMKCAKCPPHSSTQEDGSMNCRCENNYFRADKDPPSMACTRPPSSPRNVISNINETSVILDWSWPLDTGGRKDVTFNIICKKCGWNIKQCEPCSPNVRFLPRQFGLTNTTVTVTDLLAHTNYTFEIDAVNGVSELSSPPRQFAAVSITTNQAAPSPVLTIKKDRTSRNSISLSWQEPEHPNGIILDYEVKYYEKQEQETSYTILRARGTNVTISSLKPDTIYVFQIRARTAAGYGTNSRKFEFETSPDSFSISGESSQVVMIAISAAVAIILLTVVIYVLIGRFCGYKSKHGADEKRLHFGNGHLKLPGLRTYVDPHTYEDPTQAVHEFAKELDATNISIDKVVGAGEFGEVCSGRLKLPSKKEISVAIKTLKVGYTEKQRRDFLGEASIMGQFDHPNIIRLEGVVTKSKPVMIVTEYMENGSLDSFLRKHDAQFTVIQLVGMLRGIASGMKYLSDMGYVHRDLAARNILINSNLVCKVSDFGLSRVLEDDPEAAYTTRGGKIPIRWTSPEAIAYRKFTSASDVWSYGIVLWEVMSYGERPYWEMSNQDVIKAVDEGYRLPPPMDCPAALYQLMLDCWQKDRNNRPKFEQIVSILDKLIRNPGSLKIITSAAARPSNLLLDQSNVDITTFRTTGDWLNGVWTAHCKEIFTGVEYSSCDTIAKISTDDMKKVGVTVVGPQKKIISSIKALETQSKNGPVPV
Sequence of Cytoplasmic tyrosine-protein kinase BMX (Homo sapiens) (P51813 whole entry, the tested form may be a part): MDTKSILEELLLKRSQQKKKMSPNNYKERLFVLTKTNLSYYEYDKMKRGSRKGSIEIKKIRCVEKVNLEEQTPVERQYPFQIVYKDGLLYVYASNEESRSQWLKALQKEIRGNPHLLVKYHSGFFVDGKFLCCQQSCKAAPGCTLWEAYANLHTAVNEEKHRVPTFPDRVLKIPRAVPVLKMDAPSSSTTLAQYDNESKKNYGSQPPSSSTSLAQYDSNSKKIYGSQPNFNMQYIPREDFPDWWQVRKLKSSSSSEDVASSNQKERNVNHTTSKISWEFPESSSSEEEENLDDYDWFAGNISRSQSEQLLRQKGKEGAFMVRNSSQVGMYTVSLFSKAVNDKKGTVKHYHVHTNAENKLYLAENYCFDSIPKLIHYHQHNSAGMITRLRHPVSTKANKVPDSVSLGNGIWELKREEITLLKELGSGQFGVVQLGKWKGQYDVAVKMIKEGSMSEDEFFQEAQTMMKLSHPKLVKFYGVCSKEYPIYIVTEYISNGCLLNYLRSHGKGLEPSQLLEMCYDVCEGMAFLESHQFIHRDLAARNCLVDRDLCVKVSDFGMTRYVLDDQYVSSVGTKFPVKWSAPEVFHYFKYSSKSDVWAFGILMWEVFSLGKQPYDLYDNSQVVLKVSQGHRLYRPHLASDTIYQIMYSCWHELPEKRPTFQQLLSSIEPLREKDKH
Sequence of Ribosomal protein S6 kinase alpha-2 (Homo sapiens) (Q15349 whole entry): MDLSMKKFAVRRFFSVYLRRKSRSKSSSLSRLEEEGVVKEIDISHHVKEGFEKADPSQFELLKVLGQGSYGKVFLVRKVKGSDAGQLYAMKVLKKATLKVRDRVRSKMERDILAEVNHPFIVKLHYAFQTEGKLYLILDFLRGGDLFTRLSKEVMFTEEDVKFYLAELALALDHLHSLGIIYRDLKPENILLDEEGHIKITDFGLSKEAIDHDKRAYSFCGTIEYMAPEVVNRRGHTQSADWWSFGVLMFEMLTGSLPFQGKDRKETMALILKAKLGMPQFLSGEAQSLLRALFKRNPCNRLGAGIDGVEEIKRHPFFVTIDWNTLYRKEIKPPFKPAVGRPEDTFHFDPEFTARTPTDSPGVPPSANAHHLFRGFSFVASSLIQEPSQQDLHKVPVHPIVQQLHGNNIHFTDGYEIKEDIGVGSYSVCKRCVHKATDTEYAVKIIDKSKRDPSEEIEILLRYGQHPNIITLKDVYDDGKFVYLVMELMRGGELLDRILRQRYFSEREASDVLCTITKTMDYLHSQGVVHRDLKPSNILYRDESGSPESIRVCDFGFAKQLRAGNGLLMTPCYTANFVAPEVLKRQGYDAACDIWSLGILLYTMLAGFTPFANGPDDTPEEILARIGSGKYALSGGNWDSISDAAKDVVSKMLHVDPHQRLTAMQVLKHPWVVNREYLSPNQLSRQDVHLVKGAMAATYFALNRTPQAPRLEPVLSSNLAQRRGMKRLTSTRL
Sequence of Serine/threonine-protein kinase 3 (Homo sapiens) (Q13188 whole entry, the tested form may be a part): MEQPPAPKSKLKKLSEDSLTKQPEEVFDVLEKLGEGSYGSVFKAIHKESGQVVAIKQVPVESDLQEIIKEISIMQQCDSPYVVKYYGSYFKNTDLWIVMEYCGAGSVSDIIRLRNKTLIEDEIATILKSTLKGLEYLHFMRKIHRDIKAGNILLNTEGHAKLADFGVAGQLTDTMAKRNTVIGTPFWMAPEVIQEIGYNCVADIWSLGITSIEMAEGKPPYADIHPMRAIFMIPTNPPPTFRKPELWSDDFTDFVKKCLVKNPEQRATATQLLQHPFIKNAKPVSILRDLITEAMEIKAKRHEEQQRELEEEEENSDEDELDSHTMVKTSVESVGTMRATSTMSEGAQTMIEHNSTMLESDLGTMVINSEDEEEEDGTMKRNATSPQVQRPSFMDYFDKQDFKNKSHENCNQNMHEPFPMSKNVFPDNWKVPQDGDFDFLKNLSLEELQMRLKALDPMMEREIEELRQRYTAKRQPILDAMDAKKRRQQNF
Sequence of Non-receptor tyrosine-protein kinase TYK2 (Homo sapiens) (P29597 whole entry, the tested form may be a part): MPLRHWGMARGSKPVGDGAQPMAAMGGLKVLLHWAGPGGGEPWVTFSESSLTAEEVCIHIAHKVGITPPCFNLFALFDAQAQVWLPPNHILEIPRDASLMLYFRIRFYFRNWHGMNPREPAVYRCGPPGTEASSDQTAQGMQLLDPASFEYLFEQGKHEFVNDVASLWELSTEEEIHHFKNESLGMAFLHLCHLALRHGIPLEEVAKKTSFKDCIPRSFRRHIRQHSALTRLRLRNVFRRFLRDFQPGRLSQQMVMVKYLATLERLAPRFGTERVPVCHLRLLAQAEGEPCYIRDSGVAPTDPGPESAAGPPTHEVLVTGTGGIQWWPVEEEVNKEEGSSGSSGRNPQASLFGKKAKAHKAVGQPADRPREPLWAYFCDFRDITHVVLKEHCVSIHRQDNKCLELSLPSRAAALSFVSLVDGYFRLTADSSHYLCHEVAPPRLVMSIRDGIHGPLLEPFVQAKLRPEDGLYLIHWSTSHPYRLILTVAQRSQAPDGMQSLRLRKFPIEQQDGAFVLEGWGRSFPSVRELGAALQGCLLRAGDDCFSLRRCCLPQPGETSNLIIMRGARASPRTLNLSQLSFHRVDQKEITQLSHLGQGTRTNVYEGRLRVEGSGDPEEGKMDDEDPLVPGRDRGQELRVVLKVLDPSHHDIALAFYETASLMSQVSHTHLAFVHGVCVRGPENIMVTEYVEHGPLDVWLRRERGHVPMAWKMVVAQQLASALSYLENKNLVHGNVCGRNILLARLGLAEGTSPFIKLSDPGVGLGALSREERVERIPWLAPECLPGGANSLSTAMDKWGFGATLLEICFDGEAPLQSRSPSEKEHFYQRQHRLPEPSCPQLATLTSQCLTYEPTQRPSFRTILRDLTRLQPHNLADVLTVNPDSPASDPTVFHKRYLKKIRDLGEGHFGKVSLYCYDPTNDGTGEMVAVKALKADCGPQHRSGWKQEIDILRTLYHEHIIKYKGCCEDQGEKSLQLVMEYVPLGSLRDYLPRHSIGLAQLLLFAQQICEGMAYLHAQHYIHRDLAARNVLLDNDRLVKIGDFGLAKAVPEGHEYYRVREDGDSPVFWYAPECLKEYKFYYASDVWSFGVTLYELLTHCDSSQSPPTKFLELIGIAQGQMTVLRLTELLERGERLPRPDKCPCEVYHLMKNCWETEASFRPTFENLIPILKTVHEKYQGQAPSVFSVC
Sequence of Dual specificity protein kinase CLK3 (Homo sapiens) (P49761 whole entry, looked up, canonical isoform): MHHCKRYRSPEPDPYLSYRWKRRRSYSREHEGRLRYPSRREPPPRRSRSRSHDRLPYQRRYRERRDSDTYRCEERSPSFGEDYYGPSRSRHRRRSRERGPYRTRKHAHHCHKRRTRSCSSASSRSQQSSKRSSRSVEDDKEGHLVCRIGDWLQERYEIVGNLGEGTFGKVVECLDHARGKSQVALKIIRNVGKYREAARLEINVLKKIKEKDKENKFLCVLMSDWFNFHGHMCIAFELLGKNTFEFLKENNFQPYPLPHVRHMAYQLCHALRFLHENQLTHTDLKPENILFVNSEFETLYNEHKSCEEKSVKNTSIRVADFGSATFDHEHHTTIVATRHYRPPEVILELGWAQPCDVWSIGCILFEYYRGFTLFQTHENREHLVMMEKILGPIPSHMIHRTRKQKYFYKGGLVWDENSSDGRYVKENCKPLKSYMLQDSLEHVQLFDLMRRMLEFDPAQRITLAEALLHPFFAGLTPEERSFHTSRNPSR

Compound: CN1C(=O)[C@@H](NC(=O)c2n[nH]c3ncc(C(F)(F)C(F)(F)F)cc23)COc2ccccc21
- EC50 [1]: 54 nM
- inhibition [2]: 4.5%
- inhibition [3]: 5.5%
- inhibition [4]: 7%
- inhibition [5]: 0.5%
- inhibition [6]: 7.5%
- inhibition [7]: 1.5%
- inhibition [8]: 3%
- inhibition [9]: 5%
- inhibition [10]: 1.5%
- inhibition [11]: 5.5%
- inhibition [12]: 5%
- inhibition [13]: 4.5%
- inhibition [14]: -4.5%
- inhibition [15]: 4.5%
- inhibition [16]: 3.5%
- inhibition [17]: 2.5%
- inhibition [18]: 10.5%
- inhibition [19]: 6%
- inhibition [20]: 5.5%
- inhibition [21]: -0.5%
- inhibition [22]: 1.5%
- inhibition [23]: 6.5%
- inhibition [24]: -1%
- inhibition [25]: 7%
